From PubChem BioAssay (NCI)
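Following 48 hours of exposure in 96-well plates, responses at five concentrations were used to interpolate endpoints linearly. GI50: concentration for 50% inhibition of growth. TGI marks complete inhibition of growth.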

Experiments:
Test in all cases: DTP human tumour cell line panel, 48 h
786-0 renal = tested on: 786-0 renal
A498 renal = tested on: A498 renal
A549 NSCLC = tested on: A549 NSCLC
ACHN renal = tested on: ACHN renal
BT-549 breast = tested on: BT-549 breast
CAKI-1 renal = tested on: CAKI-1 renal
CCRF-CEM leukemia = tested on: CCRF-CEM leukemia
COLO 205 colon = tested on: COLO 205 colon
DU-145 prostate = tested on: DU-145 prostate
EKVX NSCLC = tested on: EKVX NSCLC
HCC-2998 colon = tested on: HCC-2998 colon
HCT-116 colon = tested on: HCT-116 colon
HCT-15 colon = tested on: HCT-15 colon
HL-60(TB) leukemia = tested on: HL-60(TB) leukemia
HOP-62 NSCLC = tested on: HOP-62 NSCLC
HOP-92 NSCLC = tested on: HOP-92 NSCLC
HS 578T breast = tested on: HS 578T breast
HT29 colon = tested on: HT29 colon
IGROV1 ovarian = tested on: IGROV1 ovarian
K-562 leukemia = tested on: K-562 leukemia
KM12 colon = tested on: KM12 colon
LOX IMVI melanoma = tested on: LOX IMVI melanoma
M14 melanoma = tested on: M14 melanoma
MCF7 breast = tested on: MCF7 breast
MDA-MB-231 breast = tested on: MDA-MB-231 breast
MOLT-4 leukemia = tested on: MOLT-4 leukemia
NCI-H226 lung = tested on: NCI-H226 lung
NCI-H23 lung = tested on: NCI-H23 lung
NCI-H460 lung = tested on: NCI-H460 lung
NCI-H522 lung = tested on: NCI-H522 lung
NCI/ADR-RES ovarian = tested on: NCI/ADR-RES ovarian
OVCAR-3 ovarian = tested on: OVCAR-3 ovarian
OVCAR-4 ovarian = tested on: OVCAR-4 ovarian
OVCAR-8 ovarian = tested on: OVCAR-8 ovarian
PC-3 prostate = tested on: PC-3 prostate
RPMI-8226 leukemia = tested on: RPMI-8226 leukemia
SF-268 CNS = tested on: SF-268 CNS
SF-295 CNS = tested on: SF-295 CNS
SF-539 CNS = tested on: SF-539 CNS
SK-MEL-2 melanoma = tested on: SK-MEL-2 melanoma
SK-MEL-28 melanoma = tested on: SK-MEL-28 melanoma
SK-MEL-5 melanoma = tested on: SK-MEL-5 melanoma
SK-OV-3 ovarian = tested on: SK-OV-3 ovarian
SN12C renal = tested on: SN12C renal
SNB-19 CNS = tested on: SNB-19 CNS
SNB-75 CNS = tested on: SNB-75 CNS
SR leukemia = tested on: SR leukemia
SW-620 colon = tested on: SW-620 colon
T-47D breast = tested on: T-47D breast
TK-10 renal = tested on: TK-10 renal
U251 CNS = tested on: U251 CNS
UO-31 renal = tested on: UO-31 renal

Cc1ccc2c(c1)C(C)Cc1c(ncnc1-n1cnc3ccccc31)N2C (centres undefined) showed a GI50 (786-0 renal) of 0.737 µM, a TGI (786-0 renal) of 19.8 µM and a GI50 (A498 renal) of 0.22 µM. The TGI (A498 renal) was 17.1 µM, the GI50 (A549 NSCLC) was 0.973 µM and the TGI (A549 NSCLC) was 17.3 µM. The GI50 (ACHN renal) was 0.953 µM, the TGI (ACHN renal) was 20.3 µM and the GI50 (BT-549 breast) was 1.37 µM. The TGI (BT-549 breast) was 20.6 µM, the GI50 (CAKI-1 renal) was 0.337 µM and the TGI (CAKI-1 renal) was 17.8 µM. The GI50 (CCRF-CEM leukemia) was 0.267 µM, the TGI (CCRF-CEM leukemia) was 12.6 µM and the GI50 (COLO 205 colon) was 0.285 µM. For the same compound, the TGI (COLO 205 colon) was 0.818 µM, the GI50 (DU-145 prostate) was 0.529 µM and the TGI (DU-145 prostate) was 14.4 µM. For the same compound, the GI50 (EKVX NSCLC) was 0.511 µM, the TGI (EKVX NSCLC) was 17.5 µM and the GI50 (HCC-2998 colon) was 1.24 µM. For the same compound, the TGI (HCC-2998 colon) was 13.6 µM, the GI50 (HCT-116 colon) was 0.407 µM and the TGI (HCT-116 colon) was 11.9 µM. It also gave a GI50 (HCT-15 colon) of 0.414 µM, a TGI (HCT-15 colon) of 12.7 µM and a GI50 (HL-60(TB) leukemia) of 0.255 µM. For the same compound, the TGI (HL-60(TB) leukemia) was 0.705 µM, the GI50 (HOP-62 NSCLC) was 0.433 µM and the TGI (HOP-62 NSCLC) was 16 µM. It also gave a GI50 (HOP-92 NSCLC) of 6.76 µM, a TGI (HOP-92 NSCLC) of 27.7 µM and a GI50 (HS 578T breast) of 0.376 µM. The TGI (HS 578T breast) was 28.9 µM, the GI50 (HT29 colon) was 0.34 µM and the TGI (HT29 colon) was 12.1 µM. The GI50 (IGROV1 ovarian) was 1.17 µM, the TGI (IGROV1 ovarian) was 28.4 µM and the GI50 (K-562 leukemia) was 0.0801 µM. For the same compound, the TGI (K-562 leukemia) was 14.1 µM, the GI50 (KM12 colon) was 0.434 µM and the TGI (KM12 colon) was 16.6 µM. The GI50 (LOX IMVI melanoma) was 0.705 µM, the TGI (LOX IMVI melanoma) was 16.2 µM and the GI50 (M14 melanoma) was 0.242 µM. The TGI (M14 melanoma) was 15.7 µM, the GI50 (MCF7 breast) was 0.0986 µM and the TGI (MCF7 breast) was 13.1 µM. It also gave a GI50 (MDA-MB-231 breast) of 0.809 µM, a TGI (MDA-MB-231 breast) of 18.2 µM and a GI50 (MOLT-4 leukemia) of 0.426 µM. The TGI (MOLT-4 leukemia) was 15 µM, the GI50 (NCI-H226 lung) was 3.5 µM and the TGI (NCI-H226 lung) was 27.4 µM. The GI50 (NCI-H23 lung) was 0.727 µM, the TGI (NCI-H23 lung) was 18 µM and the GI50 (NCI-H460 lung) was 0.38 µM. For the same compound, the TGI (NCI-H460 lung) was 12 µM, the GI50 (NCI-H522 lung) was 0.204 µM and the TGI (NCI-H522 lung) was 10.8 µM. The GI50 (NCI/ADR-RES ovarian) was 0.275 µM, the TGI (NCI/ADR-RES ovarian) was 14.8 µM and the GI50 (OVCAR-3 ovarian) was 0.313 µM. For the same compound, the TGI (OVCAR-3 ovarian) was 10.8 µM, the GI50 (OVCAR-4 ovarian) was 2.51 µM and the TGI (OVCAR-4 ovarian) was 22.5 µM. It also gave a GI50 (OVCAR-8 ovarian) of 0.592 µM, a TGI (OVCAR-8 ovarian) of 32.7 µM and a GI50 (PC-3 prostate) of 0.284 µM. The TGI (PC-3 prostate) was 36.4 µM, the GI50 (RPMI-8226 leukemia) was 0.337 µM and the TGI (RPMI-8226 leukemia) was 15.9 µM. The GI50 (SF-268 CNS) was 1.19 µM, the TGI (SF-268 CNS) was 17.7 µM and the GI50 (SF-295 CNS) was 0.189 µM. The TGI (SF-295 CNS) was 11.8 µM, the GI50 (SF-539 CNS) was 0.337 µM and the TGI (SF-539 CNS) was 13.5 µM. The GI50 (SK-MEL-2 melanoma) was 0.547 µM, the TGI (SK-MEL-2 melanoma) was 21.9 µM and the GI50 (SK-MEL-28 melanoma) was 12.3 µM. The TGI (SK-MEL-28 melanoma) was 29 µM, the GI50 (SK-MEL-5 melanoma) was 0.434 µM and the TGI (SK-MEL-5 melanoma) was 10.2 µM. The GI50 (SK-OV-3 ovarian) was 0.475 µM, the TGI (SK-OV-3 ovarian) was 13.5 µM and the GI50 (SN12C renal) was 0.915 µM. It also gave a TGI (SN12C renal) of 21.9 µM, a GI50 (SNB-19 CNS) of 0.537 µM and a TGI (SNB-19 CNS) of 21 µM. It also gave a GI50 (SNB-75 CNS) of 0.3 µM, a TGI (SNB-75 CNS) of 20.1 µM and a GI50 (SR leukemia) of 0.0649 µM. For the same compound, the TGI (SR leukemia) was 11 µM, the GI50 (SW-620 colon) was 0.281 µM and the TGI (SW-620 colon) was 17 µM. The GI50 (T-47D breast) was 0.601 µM, the TGI (T-47D breast) was 32.2 µM and the GI50 (TK-10 renal) was 13.1 µM. The TGI (TK-10 renal) was 29.4 µM, the GI50 (U251 CNS) was 0.415 µM and the TGI (U251 CNS) was 15.9 µM. For the same compound, the GI50 (UO-31 renal) was 0.939 µM and the TGI (UO-31 renal) was 17.9 µM.
